Laboratory results: PMC5933457, “Probing biological activity through structural modelling of ligand-receptor interactions of 2,4-disubstituted thiazole retinoids” (Bioorganic & Medicinal Chemistry, 2018)
Where two headings read alike, the source gives them in different places.

Columns and labels:
[1] = target: T1, RARα ligand-binding domain (GST-RAR-α-LBD) (Homo sapiens, UniProt P10276); experiment: LanthaScreen TR-FRET RARα co-activator (receptor binding) assay; format: biochemical; conditions: for binding-curve upper asymptote (coactivator recruitment), RARα: in words, Fig. 6A; for EC50: read-out: EC50 (95% confidence range) RARα
T1 construct: purchased Invitrogen
T1 sequence (P10276 183-417 limits assumed): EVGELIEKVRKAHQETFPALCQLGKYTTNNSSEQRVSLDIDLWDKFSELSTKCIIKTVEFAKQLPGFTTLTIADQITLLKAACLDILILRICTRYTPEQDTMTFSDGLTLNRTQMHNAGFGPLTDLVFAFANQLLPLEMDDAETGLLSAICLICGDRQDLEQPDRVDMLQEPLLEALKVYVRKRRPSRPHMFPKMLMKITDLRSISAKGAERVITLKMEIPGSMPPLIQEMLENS
Description: (§1) These predictions were tested through a receptor-binding assay for each RAR isotype (Fig. 6), where the assay signal is dependent on two parameters: the binding affinity of ligand to the RAR LBD, and the affinity of the coactivator for the ligand-LBD complex. For this assay, binding curves and variation in level of the upper asymptote can reflect differences in co-activator affinity for the ligand-LBD complex; variation in affinity of ligand for LBD shifts the midpoint (EC50) of the binding curve, whereas changes in the level of the upper asymptote may result from changes in coactivator affinity for the ligand-LBD complex alone, or in combination with changes in affinity for ligand with LBD.[23]
(§2) The binding interaction of each retinoid with RARα, β and γ were determined in vitro by time-resolved fluorescence resonance energy transfer (TR-FRET) using the LanthaScreen TR-FRET RARα, RARβ, and RARγ co-activator assays according to the manufacturer’s (Invitrogen™) instructions.[23] This uses a terbium-labeled anti-GST antibody, a fluorescein-labeled co activator peptide, and RARα/β/γ ligand-binding domains (LBD) that are tagged with glutathione-S-transferase (GST) in a homogenous assay format. All experiments were performed in black, 384-well low-volume plates in the dark at RT with a 4 h incubation time. The final assay volume was 20 μL and all dilutions were carried out using TR-FRET assay buffer, with a final DMSO concentration of 1%. A mixture of either 3.5 nM GST-RAR-α-LBD or 2.5 nM GST-RAR-β-LBD or 3 nM GST-RAR-γ-LBD with 62.5 nM Tb-anti GST antibody and 30 μM fluorescein-labeled peptide and retinoid or DMSO control was added to each of the wells. Each ligand assay was performed in duplicate and measured using a PHERAstar FS Microplate Reader (BMG Labtech, Ortenberg, Germany) with instrument settings as described in the manufacturer’s instructions for LanthaScreen assays. The TR-FRET signal was expressed as the ratio of the signals at 520 nm and 490 nm. The data were fitted to a three-parameter ligand-binding curve using SigmaPlot (version 12.5, Systat Software Inc., San Jose CA) and normalized to the lower asymptote of each binding curve. […] Since the assay involves interactions between ligand and LBD, and ligand-dependent interactions between the LBD and fluorescein-labeled co activator, the binding assay data were interpreted by simulating these coupled chemical reactions using the biochemical simulator COPASI version 4.3.[23], [54]
(§3) The readout of the Lanthascreen TR-FRET binding assay is based on a Forster resonance energy transfer (FRET) signal generated from the interaction between a terbium-labelled anti-glutathione-S-transferase (GST) antibody and a fluorescein-labelled coactivator peptide. The RAR ligand-binding domain (LBD) is a GST fusion protein and interaction between the LBD and the fluorescein-labelled coactivator peptide is driven by the binding of ligand to the LBD, and detected by the FRET signal from the terbium/fluorescein interaction when the terbium-labelled anti-GST binds the LBD fusion protein. The output of the assay thus relies on two binding interactions: ligand with LBD, and ligand-bound LBD with the coactivator peptide. As both interactions may be affected by the fit of ligand to the binding pocket of the LBD, we used the biochemical pathway simulator COPASI^1 to build a simple model of how the FRET signal output in the assay will vary according to differential changes in the kinetics of the two binding interactions. Reactions were modelled deterministically using mass-action kinetics described by ordinary differential equations (ODE) within COPASI.^1 This model enables us to assess the effect of different rate constants and varying ligand concentration on the formation of the final ternary complex that is the read-out from the Lanthascreen TR-FRET assay.

[2] = target: T2, RARβ ligand-binding domain (GST-RAR-β-LBD) (Homo sapiens, UniProt P10826); experiment: LanthaScreen TR-FRET RARβ co-activator (receptor binding) assay; format: biochemical; conditions: for EC50: estimated EC50, TR-FRET co-activator assay, 4 h incubation, read-out: EC50 (95% confidence range) RARβ; for binding-curve upper asymptote (coactivator recruitment), RARβ: Fig. 6B
T2 construct: purchased Invitrogen
T2 sequence (P10826 183-417 limits assumed): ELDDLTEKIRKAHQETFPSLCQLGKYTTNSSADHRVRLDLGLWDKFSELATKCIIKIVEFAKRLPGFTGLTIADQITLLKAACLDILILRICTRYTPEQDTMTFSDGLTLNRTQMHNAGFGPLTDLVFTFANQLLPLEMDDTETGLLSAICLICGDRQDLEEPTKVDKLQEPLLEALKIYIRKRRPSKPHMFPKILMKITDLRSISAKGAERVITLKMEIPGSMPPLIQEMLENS
Description: as §1, §2, §3

[3] = target: T3, RARγ ligand-binding domain (GST-RAR-γ-LBD) (Homo sapiens, UniProt P13631); experiment: LanthaScreen TR-FRET RARγ co-activator (receptor binding) assay; format: biochemical; conditions: for EC50: estimated EC50, TR-FRET co-activator assay, 4 h incubation, read-out: EC50 (95% confidence range) RARγ; for binding-curve upper asymptote (coactivator recruitment), RARγ: in words, Fig. 6C
T3 construct: purchased Invitrogen
T3 sequence (P13631 185-419 limits assumed): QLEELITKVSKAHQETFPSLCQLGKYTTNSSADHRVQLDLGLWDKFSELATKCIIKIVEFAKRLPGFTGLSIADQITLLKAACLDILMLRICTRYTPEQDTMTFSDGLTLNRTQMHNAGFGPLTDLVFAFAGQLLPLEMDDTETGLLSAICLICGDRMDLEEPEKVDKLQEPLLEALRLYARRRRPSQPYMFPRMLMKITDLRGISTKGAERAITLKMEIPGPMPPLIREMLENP
Description: as §1, §2, §3

[4] = tested on: TERA2.cl.SP12 embryonal carcinoma stem cells; experiment: Flow cytometry of cell-surface differentiation markers SSEA-3, TRA-1–60, A2B5; format: cell-based, human; conditions: 10 μM retinoid, 7 days, compared to ATRA and control cultures, Fig. 7A
From the text: First, we examined neuronal differentiation in pluripotent TERA2.cl.SP12 human embryonal carcinoma stem cells in response to retinoid treatment. TERA2.cl.SP12 cells have been used in previous studies, [29] to test the ability of synthetic retinoids to induce differentiation along a neuronal or an alternative epithelial pathway at long in vitro timescales of up to three weeks. […] Since the parent carboxylic acid (GZ24) had little activity, the response to GZ22 was a real effect of the ester rather than a result of hydrolysis of the parent ester to the carboxylic acid.
The expression of specific cell surface protein markers (SSEA-3, TRA-1–60, A2B5) on TERA2.cl.SP12 was analyzed using flow cytometry as described previously.[53] Briefly, TERA2.cl.SP12 cells, 2 × 10^5 per 25 cm^2 flask, were seeded 12–24 h before treatment with 10 μM retinoid for 7 days. The primary antibodies used were SSEA-3 (diluted 1:10, University of Iowa Hybridoma Bank), TRA-1–60 (diluted 1:50, Abcam) and neural cell marker A2B5 (diluted 1:40, R&D Systems). Labeled cells were analyzed in a Guave EasyCyte Plus System (Millipore) flow cytometer and thresholds determining the numbers of positively expressing cells were set against the negative control antibody, P3X.

TERA2.cl.SP12 stem cells = experiment: Real-time PCR for neuronal markers NeuroD1 and PAX6; format: cell-based, human; conditions: 10 μM, Fig. 7B
Description: Second, NeuroD1 and PAX6 are retinoid-induced transcription factors involved in regulating neuronal differentiation,[49], [50] and are expressed in neurons derived from TERA2.cl.SP12 stem cells.
(§4) Real time PCR was carried out immediately after treatment on both cell line lysates with 0.25% trypsin–EDTA. TERA-2.cl.SP12 cells were seeded at a density of 1 × 10^6 cells per 25 cm^2 flask, 12–24 h before treatment. […] SH-SY5Y cells were seeded at a density of 1 × 10^6 cells per 25 cm^2 flask, 12–24 h before treatment. […] Commercial RNA extraction kits (Qiagen) and reverse transcription (Applied Biosystems) kits were purchased and procedures used according to the manufacturer instructions. Real time PCR was performed using the TaqMan® Universal PCR Master Mix (Life technologies) and TaqMan® gene expression system (Applied Biosystems) based on probe sets to the specific genes to be analysed. Genecodes used are as follows: RARβ (Hs00233407_m1), CYP26-A1 (Hs00175627_m1), RARα (Hs00940448_g1), RARγ (Hs01559234_m1), PAX-6 (Hs01088112_m1), NeuroD1 (Hs01922995_s1). GADPH (Hs02758991_g1) and ACTB (Hs99999903_m1) were used as internal control genes for TERA-2.cl.SP12 and SH-SY5Y, respectively.

TERA2.cl.SP12 cells = experiment: Immunocytochemistry for A2B5, TUJ-1 and cytokeratin 8; format: cell-based, human
Description: Third, we carried out assessment of protein expression using immunofluorescent techniques on cultures of TERA2.cl.SP12 cells treated with retinoids.
TERA2.cl.SP12 cells were seeded at 5000 cells per well on poly-D-lysine (25 μg/ml) coated cover slips in 6-well plates. Cells were treated with each retinoid at a concentration of 10 μM for 7, 14 and 21 days (the media was changed every 3–4 days). Cells were also treated with 1% DMSO for the same time periods as a […] control. At the end of the treatment period, cells were fixed (4% para-formaldehyde in PBS for 30 min at room temperature (RT) and rinsed with PBS. One set of experiments was used for the cell surface marker A2B5 (diluted 1:100, R&D systems), and the other set was prepared for intracellular staining using 1% Triton-X-100 (Sigma Aldrich) in PBS as a permeabilizing agent for 10 min at RT. Non-specific labeling was blocked by incubation with a solution of 1% goat serum (Sigma Aldrich) containing 0.2% Tween-20 (Sigma Aldrich) in PBS for one hour at RT. The primary antibodies β-III tubulin antibody (TUJ-1) (1:200, Affymetrix eBioscience) and CK-8 antibody (1:500, Affymetrix eBioscience) were diluted in blocking solution and incubated with the cells for 1 h at RT. After washing three times for 15 min with PBS, cells were incubated for 1 h in the dark with anti-mouse FITC-conjugated secondary antibody IgM (1:128, Sigma Aldrich) for A2B5 staining, and anti-mouse Alexafluor 488 IgG (1:600, Invitrogen) for TUJ-1 and CK-8 staining. Hoechst 33,342 nuclear staining dye (1:1000, Molecular Probes) was dissolved in blocking solution after the secondary antibody staining step for nuclear staining.
Immunocytofluorescent images of fixed cells were visualized using a Leica SP5 confocal microscope. Scale bars are shown at 25 μm.

[5] = tested on: SH-SY5Y human neuroblastoma cells; experiment: Retinoid-induced gene expression (RARα, RARβ, RARγ, CYP26A1) by real-time PCR; format: cell-based
Description: As an additional assay of biological activity, short-term changes in expression of four genes in SH-SY5Y cells was employed; a neuroblastoma-derived lineage that undergoes neuronal differentiation in response to retinoid treatment. The four genes assayed, RARα, RARβ, RARγ and CYP26A, have RAREs associated with their promoters and may be directly regulated by retinoids.[51], [52]
as §4

## CCOC(=O)c1ccc(-c2nc(-c3ccc4c(c3)C(C)(C)CCC4(C)C)c(C)s2)cc1 [GZ23]
[1]
  binding-curve upper asymptote (coactivator recruitment), RARα: lower asymptotes
  EC50: 88.9 nM
[2]
  EC50: 12.1 nM
[2]; in words
  binding-curve upper asymptote (coactivator recruitment), RARβ: high asymptotes
[2]; in words, from EC50 values of Table 1
  RAR-type selectivity from binding assay: surprising selectivity for RARβ
[3]
  EC50: 847 nM
  binding-curve upper asymptote (coactivator recruitment), RARγ: intermediate
[4]
  proportion of cells expressing differentiation markers SSEA-3, TRA-1–60, A2B5: very little activity

## Cc1sc(-c2ccc(C(=O)O)cc2)nc1-c1ccccc1 [GZ24]
[1]; estimated EC50, TR-FRET co-activator assay, 4 h incubation
  EC50: 77.5 nM
[1]
  binding-curve upper asymptote (coactivator recruitment), RARα: lower asymptotes
[2]
  EC50: 77.8 nM
[2]; in words
  binding-curve upper asymptote (coactivator recruitment), RARβ: very low asymptotes
[3]
  EC50: 109 nM
  binding-curve upper asymptote (coactivator recruitment), RARγ: intermediate
[4]
  proportion of cells expressing differentiation markers SSEA-3, TRA-1–60, A2B5: very little activity

## CC1=C(/C=C/C(C)=C/C=C/C(C)=C/C(=O)O)C(C)(C)CCC1 [ATRA, all-trans-retinoic acid, reference compound]
[1]
  binding-curve upper asymptote (coactivator recruitment), RARα: high curve asymptotes
TERA2.cl.SP12 stem cells; after 5 days
  NeuroD1 mRNA expression, rank order: GZ25 > GZ18 > ATRA
TERA2.cl.SP12 stem cells; after 7 days
  NeuroD1 mRNA expression, rank order: ATRA > GZ25
TERA2.cl.SP12 stem cells; up to 7 days
  induction of PAX6 expression, rank order: GZ25 ≫ ATRA > GZ18
TERA2.cl.SP12 cells; 10 μM, 1, 2 and 3 weeks, Fig. 7D
  expression of epithelial phenotype marker cytokeratin 8: not detectable
TERA2.cl.SP12 cells; 10 μM, after 7 days, Fig. 7C
  expression of neuronal differentiation marker A2B5 (immunofluorescence): induced
TERA2.cl.SP12 cells; 10 μM, up to 3 weeks, Fig. 7C
  neuronal differentiation by TUJ-1 staining: most effective
[5]; 10 μM retinoid, over a 12 h period, Fig. 8A
  induction of RARα and RARγ expression: greatest activity
[5]; dose-response 1 nM to 1 μM, 8 h treatment, all doses, Fig. 8B
  induction of RARβ expression, rank order: GZ25 ≫ ATRA > GZ18
[5]; dose-response 1 nM to 1 μM, 8 h treatment, doses <1 μM, Fig. 8B
  induction of CYP26A1 expression, rank order: GZ25 > GZ18 > ATRA
